Structures can show the parent of a compound that is named as a salt.

This note sets out measurements from US9238626B2 (priority 2012, dated 2016).

The target in one experiment is Aβ1-42 (Homo sapiens, UniProt P05067). The experiment can be described thus: Aβ1-42 self-aggregation inhibition assay (thioflavin T). It counts as biochemical. The following applies: inhibitor 10 μM, [Aβ]/[I]=5/1. As for the experimental part: As reported in a previously published protocol (cf. M. Bartolini et al., “Insight into the Kinetic of Amyloid Beta (1-42) Peptide Self-Aggregation: Elucidation of Inhibitors' Mechanism of Action. ChemBioChem 2007, vol. 8, pp. 2152-2161), HFIP pretreated Aβ1-42 samples (Bachem AG, Switzerland) were solubilized with a CH3CN/0.3 mM Na2CO3250 mM NaOH (48.4:48.4:3.2) mixture to obtain a 500 μM solution. Experiments were performed by incubating the peptide in 10 mM phosphate buffer (pH=8.0) containing 10 mM NaCl, at 30° C. for 24 h (final Aβ concentration 50 μM) with and without inhibitor (10 μM, Aβ/inhibitor=5/1). Blanks containing the tested inhibitors were also prepared and tested.

Experiment [1] concerns hippocampal slices treated with Aβ oligomers. The experiment in a line: Synaptic protein levels of hippocampal slices in the presence of Aβ oligomers (western blot). It counts as cell-based, C57bl6 mice. The following applies: co-treatment with Aβ oligomers, 1 h. As for the experimental part:
The hippocampus of treated or control transgenic mice were dissected on ice and immediately frozen at −150° C. or processed. Briefly, hippocampal tissue were homogenized in RIPA buffer (50 mM Tris-Cl, pH 7.5, 150 mM NaCl, 1% NP-40, 0.5% sodium deoxycholate, and 1% SDS) supplemented with a protease inhibitor cocktail (Sigma-Aldrich P8340) and phosphatase inhibitors (50 mM NaF, 1 mM Na3VO4 and 30 μM Na4P207) using a Potter homogenizator and then passed sequentially through different caliber syringes. Protein samples were centrifuged at 14000 rpm at 4° C. twice for 10 min. Protein concentration was determined using the BCA Protein Assay Kit (Pierce Biotechnology, Rockford, Ill.). 20 and 40 micrograms of hippocampal samples were resolved by 10% SDS-PAGE, transferred to a PVDF membrane. The reactions were followed by incubation with primary antibodies, secondary antibodies anti-mouse, anti-goat or anti-rabbit IgG peroxidase conjugated (Pierce) and developed using an ECL kit (Western Lightning Plus ECL, Perkin Elmer).
In slices co-treated with (−)-(Ib) (FIG. 4A), the neuroprotective effect of the compound was observed.

A further experiment deals with APP-PS1 mice. The experiment in a line: Neuroinflammation (astrogliosis, anti-GFAP immunostaining) in APP-PS1 mice. It counts as in vivo, mouse.
The mark [2] stands for this setting: 7-month-old APP-PS1 mice, FIG. 9A.
Where [3] appears, read: 11-month-old APP-PS1 mice, FIG. 9B.

Regarding `CC1=C[C@H]2Cc3nc4cc(Cl)ccc4c(NCCCCCCCCCNC(=O)c4cc(O)c5c(c4)C(=O)c4cccc(O)c4C5=O)c3[C@@H](C1)C2` [(+)-(Ib)•HCl, (+)-(7R,11R)—N-{9-[(3-chloro-6,7,10,11-tetrahydro-9-methyl-7,11-methanocycloocta[b]quinolin-12-yl)amino]nonyl}-9,10-dihydro-4,5-dihydroxy-9,10-dioxoanthracene-2-carboxamide], the “Aβ1-42 self-induced aggregation (%)” value at Aβ1-42 is recorded as 38.4 ± 5.5%. For the same compound, in experiment [1], the GluA2 protein level result is “increased levels of total protein with every concentration used”, the PSD95 protein level result is “increased levels of total protein with every concentration used”, the SYN protein level entry was “increased levels of total protein with every concentration used” and the VGlut1 protein level entry was “no changes”. Besides, the “synaptophysin (SYP) protein level” value in experiment [1] is listed as “no changes”. Moreover, in the experiment on APP-PS1 mice (setting [2]), the “area occupied by hyper-reactive astrocytes (GFAP), inflammatory response” value (shortened to “area occupied”) is reported as “decrease in the inflammatory response”. The “area occupied” value in the experiment on APP-PS1 mice (setting [3]) is “decrease in the inflammatory response”.

In the case of `CC1=C[C@@H]2Cc3nc4cc(Cl)ccc4c(NCCCCCCCCCNC(=O)c4cc(O)c5c(c4)C(=O)c4cccc(O)c4C5=O)c3[C@H](C1)C2` [(−)-(Ib)•HCl, (−)-(7S,11S)—N-{9-[(3-chloro-6,7,10,11-tetrahydro-9-methyl-7,11-methanocycloocta[b]quinolin-12-yl)amino]nonyl}-9,10-dihydro-4,5-dihydroxy-9,10-dioxoanthracene-2-carboxamide], the “Aβ1-42 self-induced aggregation (%)” value at Aβ1-42 is on record as 43.2 ± 4.7%. Also, in experiment [1], the GluA2 protein level result was “evident effect at 10 and 100 μM”; the PSD95 protein level result was “evident effect at 10 and 100 μM”; the VGlut1 protein level result is “increment for every concentration”; the “synaptophysin (SYP) protein level” value is recorded as “no effects were observed”. Moreover, the “area occupied” value in the experiment with APP-PS1 mice (setting [2]) is on record as “decrease in the inflammatory response”. Also, the “area occupied” value in the experiment on APP-PS1 mice (setting [3]) was “decrease in the inflammatory response”.
